For the first data set, the target named is T1, 5-hydroxytryptamine receptor 6 (Homo sapiens, UniProt P50406). The data set can be described thus: Antagonist activity at human recombinant 5-HT6 receptor expressed in CHO cells assessed as inhibition of agonist induced intracellular calcium levels by aequorin assay. The note with it: read-out: pA2 (converted). The class given is functional, cell-based. On the technique in general: Calcium flux is commonly read through the fluorescence of an indicator in the cells.
T1 sequence (P50406 whole entry): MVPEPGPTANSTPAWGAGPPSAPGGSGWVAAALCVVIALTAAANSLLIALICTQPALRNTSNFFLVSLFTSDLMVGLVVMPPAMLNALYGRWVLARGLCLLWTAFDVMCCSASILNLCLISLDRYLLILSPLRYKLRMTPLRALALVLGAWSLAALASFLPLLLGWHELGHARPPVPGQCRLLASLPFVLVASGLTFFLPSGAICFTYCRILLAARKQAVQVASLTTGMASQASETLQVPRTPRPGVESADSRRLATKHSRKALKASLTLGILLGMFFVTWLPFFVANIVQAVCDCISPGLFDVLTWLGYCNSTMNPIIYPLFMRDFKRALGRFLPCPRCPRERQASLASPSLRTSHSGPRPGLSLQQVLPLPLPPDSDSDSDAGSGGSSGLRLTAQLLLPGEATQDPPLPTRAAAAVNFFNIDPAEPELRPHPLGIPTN
Regarding `CCN/C(=N\S(=O)(=O)c1ccc(OC)c(Cl)c1)N1CC2(C=N1)CCCC2`, the Kb is over 1000 nM.

With `CCN/C(=N\S(=O)(=O)c1cccc(O)c1)N1CC2(C=N1)CCCC2`, the Kb is 7.94 nM.

With `CCN/C(=N\S(=O)(=O)c1cccc(OC)c1)N1CC2(C=N1)CCCC2`, the Kb was 126 nM.

As to `CCN/C(=N\S(=O)(=O)c1ccc2c(c1)NCC2)N1CC(CC)C=N1` (configuration not stated), the Kb was over 1000 nM.

For the compound `CCN/C(=N\S(=O)(=O)c1cccc(Cl)c1)N1N=CCC1c1ccc(O)cc1` (configuration not stated), the Kb was over 1000 nM.

Turning to `CCN/C(=N\S(=O)(=O)c1ccc(OC)cc1)N1CC2(C=N1)CCCC2`, the Kb was over 1000 nM.

Take `CCN/C(=N\S(=O)(=O)c1cccc(N)c1)N1CC2(C=N1)CCCC2`: the Kb is 100 nM.

On to `CCN/C(=N\S(=O)(=O)c1cc(Cl)cc(OC)c1)N1CC2(C=N1)CCCC2`, for which the Kb is 63.1 nM.

Consider `CCN/C(=N\S(=O)(=O)c1ccc(N(C)C)cc1)N1CC(CC)C=N1` (configuration not stated), for which the Kb was over 1000 nM.

For the compound `CCN/C(=N\S(=O)(=O)c1ccc(NC(C)=O)c(Cl)c1)N1CC(CC)C=N1` (configuration not stated), the Kb is 10 nM.

In the case of `CCN/C(=N\S(=O)(=O)c1ccc2cc[nH]c2c1)N1CC(CC)C=N1` (configuration not stated), the Kb is 79.4 nM.

As to `CCN/C(=N\S(=O)(=O)c1cccc(Cl)c1)N1N=CCC1c1ccc(N)cc1` (configuration not stated), the Kb was 1580 nM.

Take `CCN/C(=N\S(=O)(=O)c1ccc2c(c1)CCN2)N1CC2(C=N1)CCCC2`: the Kb is 5.01 nM.

The subject of another data set is LLC-PK1.
Experiment: not given
The note with it: pig, LLC-PK1, 3 h.
In the case of `CCN/C(=N\S(=O)(=O)c1cccc(Cl)c1)N1N=CCC1c1ccccc1` (configuration not stated), the permeability is given as 38.5%.

Still in this data set, the particulars now being: pig, llc-pk1, 3 h; at 1 µg/mL.
Regarding `CCN/C(=N\S(=O)(=O)c1cccc(Cl)c1)N1CC(C)(C)C=N1`, the permeability was determined as 41%.

For the compound `CCN/C(=N\S(=O)(=O)c1ccc(OC)c(Cl)c1)N1CC2(C=N1)CCCC2`, the permeability is on record as 39.4%.

`CCN/C(=N\S(=O)(=O)c1cccc(O)c1)N1CC2(C=N1)CCCC2` came in with a permeability of 40.7%.

`CCN/C(=N\S(=O)(=O)c1cccc(OC)c1)N1CC2(C=N1)CCCC2`: the permeability came out at 35.2%.

The compound `CCN/C(=N\S(=O)(=O)c1ccc2c(c1)NCC2)N1CC(CC)C=N1` (configuration not stated) returned a permeability of 36.5%.

In turn, `CCN/C(=N\S(=O)(=O)c1cccc(Cl)c1)N1N=CCC1c1ccc(O)cc1` (configuration not stated) gave a permeability of 34.9%.

For the compound `CCN/C(=N\S(=O)(=O)c1ccc(OC)cc1)N1CC2(C=N1)CCCC2`, the permeability is listed as 40.4%.

Take `CCN/C(=N\S(=O)(=O)c1cccc(N)c1)N1CC2(C=N1)CCCC2`: the permeability was found to be 35.7%.

Consider `CCN/C(=N\S(=O)(=O)c1ccc(N(C)C)cc1)N1CC(CC)C=N1` (configuration not stated), for which the permeability was 38.2%.

With `CCN/C(=N\S(=O)(=O)c1ccc(NC(C)=O)c(Cl)c1)N1CC(CC)C=N1` (configuration not stated), the permeability was 34.4%.

For the compound `CCN/C(=N\S(=O)(=O)c1ccc2cc[nH]c2c1)N1CC(CC)C=N1` (configuration not stated), the permeability was 37.7%.

Compound `CCN/C(=N\S(=O)(=O)c1cccc(Cl)c1)N1N=CCC1c1ccc(N)cc1` (configuration not stated) came in with a permeability of 36.2%.

Compound `CCN/C(=N\S(=O)(=O)c1ccc2c(c1)CCN2)N1CC2(C=N1)CCCC2` yielded a permeability of 36.5%.

In a further data set the test system is MDR. The data set can be described thus: in vitro. The conditions noted are these: pig, LLC-PK1.
Description: Permeability across pig LLC-PK1 cells expressing MDR assessed as ratio of bottom to top transport over top to bottom transport at 1 ug/ml after 3 hrs by LC/MS analysis
Consider `CCN/C(=N\S(=O)(=O)c1ccc(OC)c(Cl)c1)N1CC2(C=N1)CCCC2`, for which the efflux ratio (commonly the permeability from basolateral to apical divided by that in the opposite direction, in the common usage) at 3 h, 1 ug/ml was 1.3.

With `CCN/C(=N\S(=O)(=O)c1cccc(O)c1)N1CC2(C=N1)CCCC2`, the efflux ratio at 3 h, 1 ug/ml amounted to 1.1.

In the case of `CCN/C(=N\S(=O)(=O)c1cccc(OC)c1)N1CC2(C=N1)CCCC2`, the efflux ratio at 3 h, 1 ug/ml was determined as 3.2.

Consider `CCN/C(=N\S(=O)(=O)c1ccc2c(c1)NCC2)N1CC(CC)C=N1` (configuration not stated), for which the efflux ratio at 3 h, 1 ug/ml is 1.8.

On to `CCN/C(=N\S(=O)(=O)c1cccc(Cl)c1)N1N=CCC1c1ccc(O)cc1` (configuration not stated), for which the efflux ratio at 3 h, 1 ug/ml stood at 4.9.

As to `CCN/C(=N\S(=O)(=O)c1ccc(OC)cc1)N1CC2(C=N1)CCCC2`, the efflux ratio at 3 h, 1 ug/ml stood at 1.2.

Take `CCN/C(=N\S(=O)(=O)c1cccc(N)c1)N1CC2(C=N1)CCCC2`: the efflux ratio at 3 h, 1 ug/ml was 3.2.

As for `CCN/C(=N\S(=O)(=O)c1ccc(N(C)C)cc1)N1CC(CC)C=N1` (configuration not stated), the efflux ratio at 3 h, 1 ug/ml came to 1.4.

On to `CCN/C(=N\S(=O)(=O)c1ccc(NC(C)=O)c(Cl)c1)N1CC(CC)C=N1` (configuration not stated), for which the efflux ratio at 3 h, 1 ug/ml stood at 2.

Consider `CCN/C(=N\S(=O)(=O)c1ccc2cc[nH]c2c1)N1CC(CC)C=N1` (configuration not stated), for which the efflux ratio at 3 h, 1 ug/ml turned out to be 2.8.

With `CCN/C(=N\S(=O)(=O)c1cccc(Cl)c1)N1N=CCC1c1ccc(N)cc1` (configuration not stated), the efflux ratio at 3 h, 1 ug/ml was found to be 2.7.

Take `CCN/C(=N\S(=O)(=O)c1ccc2c(c1)CCN2)N1CC2(C=N1)CCCC2`: the efflux ratio at 3 h, 1 ug/ml worked out at 2.6.

The next data set deals with T1, 5-hydroxytryptamine receptor 6. The data set can be described thus: Displacement of [3H]-N-Methyl-Lysergic acid diethylamide from human 5-HT6 receptor expressed in CHO cells after 30 mins by liquid scintillation counting analysis. The class given is cell-based.
Conditions: not given
Regarding `CCN/C(=N\S(=O)(=O)c1ccc(OC)c(Cl)c1)N1CC2(C=N1)CCCC2`, the Ki (commonly a measure of affinity in units of concentration, obtained from inhibition or displacement) is over 1000 nM.

`CCN/C(=N\S(=O)(=O)c1cccc(O)c1)N1CC2(C=N1)CCCC2` registered a Ki of 18.5 nM.

As for `CCN/C(=N\S(=O)(=O)c1cccc(OC)c1)N1CC2(C=N1)CCCC2`, the affinity corresponds to a Ki of 97.1 nM.

`CCN/C(=N\S(=O)(=O)c1ccc2c(c1)NCC2)N1CC(CC)C=N1` (configuration not stated): the affinity corresponds to a Ki of 399 nM.

Take `CCN/C(=N\S(=O)(=O)c1cccc(Cl)c1)N1N=CCC1c1ccc(O)cc1` (configuration not stated): the affinity corresponds to a Ki of 251 nM.

With `CCN/C(=N\S(=O)(=O)c1ccc(OC)cc1)N1CC2(C=N1)CCCC2`, the affinity, expressed as Ki, was 210 nM.

Compound `CCN/C(=N\S(=O)(=O)c1cccc(N)c1)N1CC2(C=N1)CCCC2` came in with a Ki of 97.2 nM.

Compound `CCN/C(=N\S(=O)(=O)c1cc(Cl)cc(OC)c1)N1CC2(C=N1)CCCC2` returned a Ki of 47.5 nM.

Compound `CCN/C(=N\S(=O)(=O)c1ccc(N(C)C)cc1)N1CC(CC)C=N1` (configuration not stated) yielded a Ki of 206 nM.

For the compound `CCN/C(=N\S(=O)(=O)c1ccc(NC(C)=O)c(Cl)c1)N1CC(CC)C=N1` (configuration not stated), the affinity corresponds to a Ki of 8.7 nM.

As for `CCN/C(=N\S(=O)(=O)c1ccc2cc[nH]c2c1)N1CC(CC)C=N1` (configuration not stated), affinity was put at a Ki of 31.6 nM.

`CCN/C(=N\S(=O)(=O)c1cccc(Cl)c1)N1N=CCC1c1ccc(N)cc1` (configuration not stated) displayed a Ki of over 1000 nM.

Turning to `CCN/C(=N\S(=O)(=O)c1ccc2c(c1)CCN2)N1CC2(C=N1)CCCC2`, the affinity corresponds to a Ki of 25 nM.
